The source of these data is patent US11622950B2.

The structures appear in SMILES notation.

Data set [1] concerns BxPC3 pancreatic cancer cells. The experiment in a line: Oral anti-tumor efficacy in human BxPC3 pancreatic cancer xenografts in mice. Format: in vivo, CD-1 nude mice. As to conditions: BxPC3 xenograft; oral dose of 100 mg/week for 4 weeks; versus 5% dextrose or untreated. The method, then: An acclimation period of 7 days was allowed between the arrival of the animal at the study site before tumor inoculation and experimentation. Mice were inoculated subcutaneously (SC) in the right flank with 2×10^6 human H460 NSCLC or BxPC3 pancreatic cancer cells that were suspended in 0.1 mL of Dulbeco's Phosphate Buffered Salt (PBS) solution using a 1 cc syringe with a 27-⅝ gauge needle. Tumor dimensions (length and width) were measured daily before, during and after treatment (using Vernier calipers) and the tumor volume was calculated using the prolate ellipsoid formula: (length×width^2)/2. Treatment with test or control articles began 8 days post tumor cell implantation when the tumor was approximately 300 mm^3.
A similar study was conducted in CD-1 nude mice (n=9) inoculated with 2×10^6 BxPC-3 cells. The study was initiated when tumors reached an average size of 150 mm^3 (day 0) and CPI-613 was administered at an oral dose of 100 mg/week for 4 weeks. A comparator arm (n=9) was conducted with IP treatment at a weekly dose of 25 mg/kg.
Background: In xenograft studies the graft and the host belong to different species.

The next data set relates to human H460 NSCLC cells. Nature of the data set: Oral anti-tumor efficacy in human H460 NSCLC xenografts in mice. Format: in vivo, CD1-Nu/Nu female mice. Conditions: H460 xenograft; oral 100 mg/kg on day 8, 15, 22, 29; versus 5% dextrose or untreated. As for the experimental part: Human H460 NSCLC cells were obtained from American Type Cell Culture (ATCC) (catalog no. HTB-177, Manassas, Va.). These cells tested negative for viral contamination using the Mouse Antibody Production (MAP) test, performed by Charles River Labs Molecular Division, upon the receipt of the tumor cells from ATCC. The tumor cells were maintained at […] in a humidified 5% CO2 atmosphere in T225 tissue culture flasks containing 50 mL of Roswell Park Memorial Institute (RPMI)-1640 solution with 10% Fetal Bovine Serum (FBS) and 2 mM L-glutamine. Cells were split at a ratio of 1:10 every 2-3 days by trypsinization and resuspended in fresh medium in a new flask. Cells were harvested for experiments in the same way at 70-90% confluency.
CD1-Nu/Nu female mice, ˜4-6 weeks old were obtained from Charles River Laboratories. Mice were housed 5 to a cage in a micro-isolator room in the Department of Animal Laboratory Research of New York State University (SUNY) at Stony Brook. Light-dark cycles were 12 h each daily, with light from 7 a.m. to 7 p.m. […]
An acclimation period of 7 days was allowed between the arrival of the animal at the study site before tumor inoculation and experimentation. […] Tumor dimensions (length and width) were measured daily before, during and after treatment (using Vernier calipers) and the tumor volume was calculated using the prolate ellipsoid formula: (length×width^2)/2. […]

A short description of data set [2]: Clinical study of CPI-613 Drug Compound with gemcitabine hydrochloride and nab-paclitaxel: tolerance. Format: in vivo. As to conditions: 500 mg/m^2 with Gemcitabine+nab-paclitaxel on days 1 and 15, human patients. From the text:
Human patients suffering from locally advanced or metastatic pancreatic cancer are to be administered 6,8-bis(benzylsulfanyl)octanoic acid triethanolamine ion pair in combination with gemcitabine hydrochloride and nab-paclitaxel. Experimental procedures are described below.
[…] CPI-613 Drug Compound is 6,8-bis(benzylsulfanyl)octanoic acid triethanolamine ion pair.

Consider `O=C(O)CCCCC(CCSCc1ccccc1)SCc1ccccc1` (stereo not drawn) [6,8-bis(benzylsulfanyl)octanoic acid], for which the tumor growth result in data set [1] was “especially pronounced”; in the data set with human H460 NSCLC cells it was “grew much more slowly”. For `O=C(O)CCCCC(CCSCc1ccccc1)SCc1ccccc1.OCCN(CCO)CCO` (stereo not drawn) [CPI-613 Drug Compound, 6,8-bis(benzylsulfanyl)octanoic acid triethanolamine ion pair], the tolerance of regimen entry in data set [2] is “excellent tolerance”.
